Data set [1] concerns HCT-116. The data set can be described thus: Induction of apoptosis in human HCT-116 cells assessed as viable cells at 0.2 uM incubated for 24 hrs by Annexin V-FITC/PI staining based flow cytometry analysis ( Rvb = 92.2%). Type of data set: functional. The settings on record: read-out: Activity. Background: In flow cytometry, cells or beads pass a laser one at a time.
The test system of data set [2] is HCT-116. In words: Induction of apoptosis in human HCT-116 cells assessed as necrotic cells at 0.2 uM incubated for 24 hrs by Annexin V-FITC/PI staining based flow cytometry analysis ( Rvb = 0.24%). Type of data set: functional.
In data set [3] the target is T1, Class 1 histone deacetylase (Homo sapiens) (UniProt Q13547+O15379+Q92769+Q9BY41). In words: Inhibition of class 1 HDACs in human HCT-116 cells assessed as upregulation of acetylated alpha-H3 level incubated for 24 hrs by Western blotting analysis. The note with it: dose 0.5-4 µM. Format: cell-based. For orientation: In western blotting, separated proteins are transferred to a membrane and probed.

The test system of data set [4] is HCT-116. The data set can be described thus: Antiproliferative activity against human HCT-116 cells incubated for 48 hrs by MTT assay. The settings on record: HCT-116, 48 h. Type of data set: functional, cell-based. (Tetrazolium assays rely on reduction of a dye to a coloured formazan, in cell work by metabolically active cells.)
For data set [5], the system named is HCT-116. In words: Induction of cell cycle arrest in human HCT-116 cells assessed as accumulation of cells at S phase at 0.1 uM after 24 hrs by PI staining based flow cytometry analysis (reference value: 52.8%). Format: functional.
Data set [6] has as its target T2, Protein deacetylase HDAC6 (Homo sapiens) (UniProt Q9UBN7).
T2 sequence (whole entry): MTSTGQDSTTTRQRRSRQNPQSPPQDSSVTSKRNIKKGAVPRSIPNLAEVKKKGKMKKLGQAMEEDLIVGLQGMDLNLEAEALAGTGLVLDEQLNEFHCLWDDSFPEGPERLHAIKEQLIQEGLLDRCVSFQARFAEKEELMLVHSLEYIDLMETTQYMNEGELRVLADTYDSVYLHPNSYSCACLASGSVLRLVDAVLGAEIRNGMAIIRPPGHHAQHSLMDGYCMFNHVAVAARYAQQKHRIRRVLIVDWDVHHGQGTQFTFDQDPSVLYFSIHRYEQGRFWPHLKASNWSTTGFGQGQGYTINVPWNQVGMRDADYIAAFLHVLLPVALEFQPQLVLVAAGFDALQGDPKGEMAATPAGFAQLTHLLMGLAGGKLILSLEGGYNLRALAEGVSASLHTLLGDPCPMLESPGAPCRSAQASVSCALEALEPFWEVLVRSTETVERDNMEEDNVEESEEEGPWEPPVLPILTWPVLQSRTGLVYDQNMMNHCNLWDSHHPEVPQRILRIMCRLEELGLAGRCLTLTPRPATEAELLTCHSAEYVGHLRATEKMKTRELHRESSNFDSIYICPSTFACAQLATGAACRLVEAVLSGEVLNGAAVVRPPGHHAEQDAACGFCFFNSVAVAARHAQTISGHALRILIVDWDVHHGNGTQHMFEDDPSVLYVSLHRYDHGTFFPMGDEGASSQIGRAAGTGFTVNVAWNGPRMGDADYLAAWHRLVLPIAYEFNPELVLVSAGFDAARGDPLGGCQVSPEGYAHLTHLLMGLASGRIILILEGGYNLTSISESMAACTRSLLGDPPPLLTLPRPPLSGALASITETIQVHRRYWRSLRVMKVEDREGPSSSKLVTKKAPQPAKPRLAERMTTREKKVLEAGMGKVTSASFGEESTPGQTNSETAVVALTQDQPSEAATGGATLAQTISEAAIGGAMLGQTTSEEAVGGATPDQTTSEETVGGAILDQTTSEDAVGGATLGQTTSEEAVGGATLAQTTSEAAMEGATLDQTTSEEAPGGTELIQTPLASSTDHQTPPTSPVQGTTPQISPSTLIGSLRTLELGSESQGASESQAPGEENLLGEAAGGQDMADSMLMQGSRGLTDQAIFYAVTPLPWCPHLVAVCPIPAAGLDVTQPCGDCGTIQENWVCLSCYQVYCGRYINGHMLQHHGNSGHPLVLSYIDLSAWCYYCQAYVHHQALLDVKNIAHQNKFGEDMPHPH
In words: Inhibition of HDAC6 in human HCT-116 cells assessed as upregulation of acetylated alpha-tubulin level incubated for 24 hrs by Western blotting analysis. Format: cell-based. The settings on record: dose 0.5-4 µM.

Data set [7] has as its system HCT-116. The data set can be described thus: Induction of apoptosis in human HCT-116 cells assessed as viable cells at 0.4 uM incubated for 24 hrs by Annexin V-FITC/PI staining based flow cytometry analysis ( Rvb = 92.2%). Type of data set: functional. The note with it: read-out: Activity.
A further data set relates to EBC-1. The data set can be described thus: Antiproliferative activity against human EBC-1 cells incubated for 48 hrs by MTT assay. Format: functional, cell-based. The note with it: EBC-1, 48 h.
Data set [8] has as its system HCT-116. In words: Induction of apoptosis in human HCT-116 cells assessed as early apoptotic cells at 0.4 uM incubated for 24 hrs by Annexin V-FITC/PI staining based flow cytometry analysis ( Rvb = 2.36%). Format: functional.
Data set [9] relates to HCT-116. In words: Induction of apoptosis in human HCT-116 cells assessed as late apoptotic cells at 0.4 uM incubated for 24 hrs by Annexin V-FITC/PI staining based flow cytometry analysis ( Rvb = 5.32%). Type of data set: functional.
Data set [10] has as its target T1, Class 1 histone deacetylase (Homo sapiens). The data set can be described thus: Inhibition of class 1 HDACs in human HCT-116 cells assessed as upregulation of acetylated alpha-H3 level at 1 uM incubated for 24 hrs by Western blotting analysis. Format: cell-based.
For the next data set, the system named is NCI-H1581. The data set can be described thus: Antiproliferative activity against human NCI-H1581 cells incubated for 48 hrs by MTT assay. The note with it: NCI-H1581, 48 h. Type of data set: functional, cell-based.
Data set [11] concerns HCT-116. The data set can be described thus: Induction of cell cycle arrest in human HCT-116 cells assessed as accumulation of cells at G2/M phase at 0.4 uM after 24 hrs by PI staining based flow cytometry analysis (reference value: 9.3%). Type of data set: functional.
In data set [12] the test system is HCT-116. The data set can be described thus: Antitumor activity against human HCT-116 cells xenografted with BALB/c nude mouse assessed as tumor growth inhibition at 5 mg/kg, ip administered every 2 days for 26 days. Type of data set: functional. The settings on record: HCT-116, 624 h, time 26 day, read-out: TGI.
The next data set concerns Mus musculus. In words: In vivo inhibition of class 1 HDACs in BALB/c nude mouse assessed as upregulation of tumor acetylated H3 level at 5 mg/kg, ip administered every 2 days for 26 days by Western blotting analysis. The settings on record: time 26.0 day. Type of data set: functional, organism-based.
The target in data set [13] is T2, Protein deacetylase HDAC6 (Homo sapiens). In words: Inhibition of HDAC6 in human HCT-116 cells assessed as upregulation of acetylated alpha-tubulin level at 1 uM incubated for 24 hrs by Western blotting analysis. Type of data set: cell-based.
Data set [14] has as its system HCT-116. The data set can be described thus: Induction of cell cycle arrest in human HCT-116 cells assessed as accumulation of cells at S phase at 0.4 uM after 24 hrs by PI staining based flow cytometry analysis (reference value: 52.8%). Format: functional.
Data set [15] deals with HCT-116. The data set can be described thus: Induction of cell cycle arrest in human HCT-116 cells assessed as accumulation of cells at G1 phase at 0.4 uM after 24 hrs by PI staining based flow cytometry analysis (reference value: 37.9%). Format: functional.
Data set [16] addresses T3, Protein deacetylase HDAC6 (Homo sapiens, UniProt Q9UBN7).
T3 sequence (Q9UBN7 whole entry): T2 sequence (whole entry)
The data set can be described thus: Inhibition of recombinant human HDAC6 using Boc-Lys(Ac)-AMC as substrate preincubated for 1 hr followed by substrate addition and measured after 2 hrs by microplate reader assay.

The nature of data set [17]: Toxicity in mouse assessed as mortality at 5 mg/kg, ip administered every 2 days for 26 days. Type of data set: organism-based. The note with it: in vivo, 624 h, time 26 day.

Structures are written as SMILES. Activity calls are given as the source filed them. The rule behind the calls is not given here.

T1 sequence (O15379 whole entry, looked up): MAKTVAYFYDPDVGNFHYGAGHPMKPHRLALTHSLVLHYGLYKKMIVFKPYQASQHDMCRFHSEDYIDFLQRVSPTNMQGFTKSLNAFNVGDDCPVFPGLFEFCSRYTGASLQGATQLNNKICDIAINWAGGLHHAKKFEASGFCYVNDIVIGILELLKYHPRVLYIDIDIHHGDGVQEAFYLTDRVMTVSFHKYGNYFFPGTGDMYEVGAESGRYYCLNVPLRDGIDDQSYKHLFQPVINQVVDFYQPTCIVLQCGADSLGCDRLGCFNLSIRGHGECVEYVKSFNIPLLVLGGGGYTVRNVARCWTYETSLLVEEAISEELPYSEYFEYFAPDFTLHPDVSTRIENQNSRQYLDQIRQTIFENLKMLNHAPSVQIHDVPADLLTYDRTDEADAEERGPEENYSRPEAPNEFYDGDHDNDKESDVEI
T1 sequence (Q13547 whole entry, looked up): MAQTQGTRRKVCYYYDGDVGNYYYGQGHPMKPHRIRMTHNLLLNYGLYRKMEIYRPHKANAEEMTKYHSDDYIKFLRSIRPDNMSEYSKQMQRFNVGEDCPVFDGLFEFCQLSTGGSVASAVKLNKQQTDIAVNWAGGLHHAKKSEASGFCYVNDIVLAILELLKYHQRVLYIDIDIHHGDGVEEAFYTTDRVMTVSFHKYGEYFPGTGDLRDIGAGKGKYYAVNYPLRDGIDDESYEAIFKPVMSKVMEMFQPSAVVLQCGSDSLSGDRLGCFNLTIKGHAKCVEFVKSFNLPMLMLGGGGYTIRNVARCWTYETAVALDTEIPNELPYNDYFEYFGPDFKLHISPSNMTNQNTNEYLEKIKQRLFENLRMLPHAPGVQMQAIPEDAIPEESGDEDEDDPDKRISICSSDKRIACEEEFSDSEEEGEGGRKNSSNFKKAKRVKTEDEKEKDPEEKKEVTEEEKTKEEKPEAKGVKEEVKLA
T1 sequence (Q92769 whole entry, looked up): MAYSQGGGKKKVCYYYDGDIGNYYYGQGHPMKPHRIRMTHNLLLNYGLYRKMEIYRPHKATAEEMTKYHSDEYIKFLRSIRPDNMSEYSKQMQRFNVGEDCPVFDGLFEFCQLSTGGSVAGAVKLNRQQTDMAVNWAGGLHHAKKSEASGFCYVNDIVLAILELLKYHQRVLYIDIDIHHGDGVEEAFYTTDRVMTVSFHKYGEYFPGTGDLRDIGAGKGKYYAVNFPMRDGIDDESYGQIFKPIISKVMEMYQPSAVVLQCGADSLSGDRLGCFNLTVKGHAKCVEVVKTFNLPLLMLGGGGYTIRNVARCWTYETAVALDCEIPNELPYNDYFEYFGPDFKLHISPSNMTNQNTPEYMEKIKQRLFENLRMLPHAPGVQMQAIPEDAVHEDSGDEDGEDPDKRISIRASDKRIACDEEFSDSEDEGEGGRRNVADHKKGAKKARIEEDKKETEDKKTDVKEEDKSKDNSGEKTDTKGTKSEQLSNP
T1 sequence (Q9BY41 whole entry, looked up): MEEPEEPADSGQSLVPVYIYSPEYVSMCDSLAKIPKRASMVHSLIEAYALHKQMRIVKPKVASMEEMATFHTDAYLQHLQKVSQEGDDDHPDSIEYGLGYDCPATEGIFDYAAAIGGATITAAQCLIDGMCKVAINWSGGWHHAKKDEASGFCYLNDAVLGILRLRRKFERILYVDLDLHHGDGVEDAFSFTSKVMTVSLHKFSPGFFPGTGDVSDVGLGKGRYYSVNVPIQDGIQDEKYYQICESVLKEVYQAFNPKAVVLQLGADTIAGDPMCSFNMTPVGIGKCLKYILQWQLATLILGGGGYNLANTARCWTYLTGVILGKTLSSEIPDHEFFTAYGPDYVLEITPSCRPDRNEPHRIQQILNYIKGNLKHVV

For `O=C(NCC[Se][Se]CCNC(=O)/C(Cc1ccsc1)=N/O)/C(Cc1ccsc1)=N/O`, the viability at 0.2 µM in the data set on HCT-116 [1] was 34.5%. In addition, the Activity in the data set on HCT-116 [2] was found to be 0.18%; in the data set with HCT-116 [5] it was 18.84%; in the data set on HCT-116 [8] it was 73.3%; in the data set on HCT-116 [9] it was 6.97%; with HCT-116 [11] it was 52.59%; in the data set with HCT-116 [14], 39.56%. Besides, the Activity in the data set with HCT-116 [15] is given as 7.85%. The inhibition result in data set [3] and in [6] was “Dose-Dependent Effect” in each case. Besides, the IC50 turned out to be 210 nM in the data set on HCT-116 [4], 640 nM in the data set with EBC-1, 260 nM in the data set with NCI-H1581 and 3100 nM in data set [16]. Besides, in the data set with HCT-116 [7], the viability at 0.4 µM was 19.7%. The inhibition entry (in [10]; in the data set with Mus musculus; in data set [13]) was “Active” in each case. For the same compound, in the data set with HCT-116 [12], the inhibition in vivo at 5 mg/kg is 24%.

Regarding `O=C(NCC[Se][Se]CCNC(=O)/C(Cc1ccc(O)c(Br)c1)=N/O)/C(Cc1ccc(O)c(Br)c1)=N/O`, the viability at 0.2 µM in the data set with HCT-116 [1] came to 40.7%. Further, the Activity was 0.32% in the data set on HCT-116 [2]; “Toxic” in [17]; 20% in the data set on HCT-116 [5]; 67% with HCT-116 [8]; 4.94% with HCT-116 [9]. In addition, the inhibition entry in data set [3] and in [6] was “Dose-Dependent Effect” throughout. Also, the results for the IC50 (with HCT-116 [4]; in data set [16]) were 240 nM and 60 nM, respectively. The viability at 0.4 µM with HCT-116 [7] was found to be 28%. For the same compound, the inhibition in vivo at 5 mg/kg in the data set with HCT-116 [12] was determined as 74.6%. Moreover, in the data set with Mus musculus, the inhibition entry was “Active”.

Broadly, the IC50 is the concentration that gives 50% inhibition.

The values above are taken from ChEMBL document CHEMBL5584238, “Psammaplin A analogues with modified disulfide bond targeting histone deacetylases: Synthesis and biological evaluation” (Eur J Med Chem, 2024).
